PMC9272937, “Anti-breast cancer sinomenine derivatives via mechanisms of apoptosis induction and metastasis reduction” (Journal of Enzyme Inhibition and Medicinal Chemistry, 2022)

What was measured:
[1] = system: human mammary gland tumour cell line MCF-7; assay: CCK-8 antiproliferative assay, MCF-7; assay type: cell-based; settings: for IC50: Homo sapiens, MCF7, 48 h, read-out: IC50 MCF-7; for SI MCF-7 (selectivity index): SI = IC50(MCF-10A)/IC50(MCF-7)
Description: (§1) The antiproliferative activities of target compounds were examined by CCK-8 assay in three cancer cells (human lung cancer cell line A549, human mammary gland tumour cell line MCF-7 and human TNBC cell line MDA-MB-231) and one normal cell (human normal breast cell line MCF10A). All cell lines were sourced from KeyGEN Biotech, […], China, and a standard DMEM medium was applied to all cell cultures then subjected to 24 h incubation at 37 °C in a humidified environment with 5% CO2. After that logarithmic growing cells were plated on 96-well plates with 8,000 cells per well in a […] medium for 24 h incubation at 37 °C with 5% CO2. The DMEM medium with bovine serum was removed from each well. Then, prerequisite target compounds and positive controls were added to different cell lines in a predetermined concentration regiment for 48 h culture.

[2] = system: human normal breast cell line MCF10A; assay: CCK-8 assay, normal cells MCF10A; assay type: cell-based; settings: MCF-10A, CCK-8, 48 h, mean ± SD of three experiments
Description: as §1

[3] = Griess assay, NO-releasing capacity; settings: 10^−4 mol/l compound, L-cysteine, 37 °C; for NO peak releasing: 15-180 min
Description: The NO-releasing capacity of each target compound was determined by the colorimetric method under the instructions of the manufacturer. Preparation of standard curves of 0, 1.56, 3.13, 6.25, 12.5, 25, 50 and 100 μmol/L nitrite nitrogen series standard solution was prepared. 50 μL to 96-well plate was added respectively and then mixed with 50 μL Griess I and Griess II; the absorption value was measured at 540 nm wavelength. A standard curve was drawn from the obtained data. Compounds were formulated into 10^−4 mol/l with PBS (pH = 7.4) and pharmaceutical DMSO. The newly formulated L-cysteine solution 100 μL ([…]) was added and incubated at 37 °C for 15, 30, 45, 60, 90, 120, 150 and180 min, respectively. Griess I and II recovered to room temperature, 50 μL of compounds 7A–E(a–c) were added respectively into the 96-well plate, and then 50 μL of Griess I and 50 μL of Griess II were added in sequence, with the absorbance tested at 540 nm. The amount of NO released was then calculated according to the standard curve.

[4] = system: human lung cancer cell line A549; assay: CCK-8 antiproliferative assay, A549; assay type: cell-based; settings: Homo sapiens, A549; CCK-8, 48 h, mean ± SD of three experiments
Description: as §1

[5] = system: human TNBC cell line MDA-MB-231; assay: CCK-8 antiproliferative assay, MDA-MB-231; assay type: cell-based; settings: for IC50: Homo sapiens, MDA-MB-231, 48 h, read-out: IC50 MDA-MB-231; for SI MDA-MB-231 (selectivity index): SI = IC50(MCF-10A)/IC50(MDA-MB-231)
Description: as §1

MDA-MB-231 cells [6] = assay: Transwell assay; assay type: cell-based, human; settings: 0.41, 0.82, 1.64 μM, 24 h, concentration-dependent
Description: Then, cells attached to the upper surface of the membrane were removed while migrated or invaded cells of the lower membrane surface were added 0.1% crystal violet staining for 30 min. Then, migrated or invaded cells of the lower chamber were photographed and counted.

MDA-MB-231 cells [7] = assay: Cell apoptosis assay (annexin V-FITC/PI, flow cytometry); assay type: cell-based, human; settings: 72 h, negative control 5.98%
Description: This assay was performed on 6-well plates with 200,000 MDA-MB-231 cells per well and incubated for 24 h at 37 °C with 5% CO2, then the medium from each well was removed and treated by 7Cc in different concentrations (0, 0.41, 0.82, 1.64 μM) for additional 72 h incubation. Subsequently, 500 μL of binding buffer was applied to suspend and collect compound treated cells. Then, 5 μL of both annexin V-fluorescein isothiocyanate (Annexin V-FITC) and propidium iodide (PI) was applied to the mixture and this reaction was placed under total dark at room temperature for 10 min. Cell apoptosis was examined by flow cytometry.

MDA-MB-231 cells [8] = assay: Comet assay (DNA damage); assay type: cell-based, human; settings: 0.41, 0.82, 1.64 μM, 72 h, MDA-MB-231, neutral comet assay
Description: All DNA damage sustained in this assay was measured via Comet Assay Kit (Keygen, Nanjing, China) according to the manufacturer’s instructions. 7Cc was added to MDA-MB-231 cells at predetermined concentrations (0, 0.41, 0.82, 1.64 μM) for 72 h. These cells were then collected and fixed on CometSlide at 4 °C for 15 min. After that, the cells were set under lysis solution at 4 °C for 90 min and these slides were electrophoresed for 20 min, fixed in ethanol for 5 min, and then stained with Vista Green DNA Dye. The final results were acquired by a fluorescence microscope.

MDA-MB-231 cells [9] = assay: Mitochondrial membrane potential assay (JC-1, flow cytometry); assay type: cell-based, human; settings: 48 h, control 3.67%
Description: Briefly, MDA-MB-231 cells in logarithmic growth were placed in 6-well plates with 200,000 cells per well for 24 h before a medium remove and then incubated with 7Cc at predetermined concentrations (0, 0.41, 0.82, 1.64 μM) for 48 h. Cells were collected after and washed with PBS. JC-1 dye was added to cells for staining under total dark conditions according to the manufacturer's instructions (KGA601, KeyGEN Biotech, Nanjing, China). The percentage of cells with collapsed mitochondrial membrane potentials was detected by flow cytometry.

MDA-MB-231 cells [10] = assay: Wound healing assay; assay type: cell-based, human; settings: 0.41, 0.82, 1.64 μM, 24 h
Description: In this assay, 6-well plates with 200,000 cells per well were used for the culture of MDA-MB-231 cells at 37 °C for 24 h and the medium of each well was removed. Then, 7Cc at predetermined concentrations (0, 0.41, 0.82, 1.64 μM) was added to the cell culture for incubation. After that, sterile pipette tips were utilised to scratch cell culture in 6-well plates in an even fashion, and detached cells were washed away by PBS with culture medium replaced anew afterward. After 24 h of additional incubation, cell cultures were photographed and migration distance examined accurately.

MDA-MB-231 cells [11] = assay: Cell cycle analysis (PI staining, flow cytometry); assay type: cell-based, human; settings: 72 h; for share of S phase in cell cycle: control 45.39%
Description: This assay was conducted on 6-well plates with 200,000 MDA-MB-231 cells per well and incubated for 24 h at 37 °C with 5% CO2, then the medium from each well was removed and treated by 7Cc in different concentrations (0, 0.41, 0.82, 1.64 μM) for additional 72 h incubation. The desired cell suspension was acquired after attached cells were digested then collected and washed in terms. Cell suspension was then subjected to fixation via 70% ethanol and washed with phosphate-buffered solution (PBS), incubated with 100 μL Rnase A, and placed on water bathed for half an hour at 37 °C. For the final step, 400 μL PI was applied to the mixture in a dark environment at 4 °C for 30 min. Then the distribution of DNA content was measured by flow cytometry (FACS Calibur Becton-Dickinson, Franklin Lake, NJ).

MDA-MB-231 cells [12] = assay: Adhesion assay; assay type: cell-based, human; settings: 0.41, 0.82, 1.64 μM, 72 h, dose-dependent
Description: MDA-MB-231 cells were incubated in different plates and then treated with 7Cc in different concentrations (0, 0.41, 0.82, 1.64 μM) for 72 h. After that, the CAM ([…]) stain treated serum-free medium was applied and 96-well plates were seeded with 100 μL already prepared cell suspension at 2,000 cells per good concentration for an hour. Then, plates were washed by PBS, fixed via 3.7% formaldehyde, another PBS wash, and photographed by fluorescence microscope.

Compound | IC50 [1] [nM] | SI MCF-7 (selectivity index) [1] | IC50 [2] [nM] | NO peak releasing [3] | IC50 [4] [nM] | IC50 [5] [nM] | SI MDA-MB-231 (selectivity index) [5] | other results
COC1=CC2[C@H]3Cc4ccc(OC)c(OC(=O)CCC(=O)OCCCCOc5no[n+]([O-])c5S(=O)(=O)c5ccccc5)c4[C@@]2(CCN3C)CC1=O (stereo partly drawn) [7Ca, 4–(4-((4-(((4bs,9R)-3,7-Dimethoxy-11-methyl-6-oxo-6,8a,9,10-tetrahydro-5H-9,4b-(epiminoethano)phenanthren-4-yl)oxy)-4-oxobutanoyl)oxy)butoxy)-3-(phenylsulfonyl)-1,2,5-oxadiazole 2-oxide] | 2550 ± 140 | 15.95 | 40700 ± 2790 | exceeding 40 μmol/L | 2970 ± 140 | 2260 ± 190 | 18 | 
COC1=CC2[C@H]3Cc4ccc(OC)c(OC(=O)c5ccccc5C(=O)OCCCCOc5no[n+]([O-])c5S(=O)(=O)c5ccccc5)c4[C@@]2(CCN3C)CC1=O (stereo partly drawn) [7Cc, 4–(4-((2-((((4bs,9R)-3,7-Dimethoxy-11-methyl-6-oxo-6,8a,9,10-tetrahydro-5H-9,4b-(epiminoethano)phenanthren-4-yl)oxy)carbonyl)benzoyl)oxy)butoxy)-3-(phenylsulfonyl)-1,2,5-oxadiazole 2-oxide] | 1750 ± 150 | 15.73 | 27500 ± 2340 |  | 1940 ± 50 | 820 ± 20 | 33.57 | invasion (cells permeated through transwell membrane) (MDA-MB-231 cells [6]): notably reduced the number of cells permeated through the membrane; apoptotic portions of cells (two quadrants from the right side) (MDA-MB-231 cells [7]; 0.41 μM): 16.66%; apoptotic portions of cells (two quadrants from the right side) (MDA-MB-231 cells [7]; 0.82 μM): 26.62%; apoptotic portions of cells (two quadrants from the right side) (MDA-MB-231 cells [7]; 1.64 μM): 53.28%; DNA damage (double-strand DNA breaks, comet tail) (MDA-MB-231 cells [8]): significant presence of endogenous DSBs was observed; percentage of cells with collapsed mitochondrial membrane potential (JC-1) (MDA-MB-231 cells [9]; 0.41 μM): 16.40%; percentage of cells with collapsed mitochondrial membrane potential (JC-1) (MDA-MB-231 cells [9]; 0.82 μM): 31.01%; percentage of cells with collapsed mitochondrial membrane potential (JC-1) (MDA-MB-231 cells [9]; 1.64 μM): 49.98%; migration (wound closure) (MDA-MB-231 cells [10]): inhibited migration; share of S phase in cell cycle (MDA-MB-231 cells [11]; 0.41 μM): 49.10%; share of S phase in cell cycle (MDA-MB-231 cells [11]; 0.82 μM): 57.27%; share of G2 phase in cell cycle (MDA-MB-231 cells [11]; 1.64 μM, control 10.09%): 5.76%; share of G1 phase in cell cycle (MDA-MB-231 cells [11]; 1.64 μM, control 44.52%): 30.09%; share of S phase in cell cycle (MDA-MB-231 cells [11]; 1.64 μM): 64.15%; cellular adhesion (MDA-MB-231 cells [12]): clear prevention of TNBC cellular adhesion; time at which top volume of NO released was reached [3]: 90 min; NO release at 180 min ([3]; 180 min): 39.27 µmol/L
COC1=CC2[C@H]3Cc4ccc(OC)c(OC(=O)CCC(=O)OCCCCCOc5no[n+]([O-])c5S(=O)(=O)c5ccccc5)c4[C@@]2(CCN3C)CC1=O (stereo partly drawn) [7Da, 4-((5-((4-(((4bs,9R)-3,7-Dimethoxy-11-methyl-6-oxo-6,8a,9,10-tetrahydro-5H-9,4b-(epiminoethano)phenanthren-4-yl)oxy)-4-oxobutanoyl)oxy)pentyl)oxy)-3-(phenylsulfonyl)-1,2,5-oxadiazole 2-oxide] | 1800 ± 110 | 13.74 | 24700 ± 1670 | exceeding 40 μmol/L | 2790 ± 70 | 920 ± 10 | 26.89 | 
COC1=CC2[C@H]3Cc4ccc(OC)c(OC(=O)c5ccccc5C(=O)OCCCCCOc5no[n+]([O-])c5S(=O)(=O)c5ccccc5)c4[C@@]2(CCN3C)CC1=O (stereo partly drawn) [7Dc, 4-((5-((2-((((4bs,9R)-3,7-Dimethoxy-11-methyl-6-oxo-6,8a,9,10-tetrahydro-5H-9,4b-(epiminoethano)phenanthren-4-yl)oxy)carbonyl)benzoyl)oxy)pentyl)oxy)-3-(phenylsulfonyl)-1,2,5-oxadiazole 2-oxide] | 2180 ± 100 | 9.11 | 19800 ± 1430 | exceeding 40 μmol/L | 1630 ± 50 | 1880 ± 90 | 10.56 | 
